# How the values were obtained:
# [1] = test system: S. aureus MRSA&Mup^r (methicillin resistant & mupirocin resistant Staphylococcus aureus); test: MIC by broth microdilution, MRSA&Mup^r; format: cell-based; conditions: S. aureus MRSA&Mup^r (14 isolates); not all isolates tested against fusidic acid
# Description: (§1) Whole-cell antimicrobial activity was determined by broth microdilution. Test compounds were dissolved in DMSO and diluted 1:10 in water to produce a 64 mcg/ml stock solution. Using a 96 well microtitre plate, a Microlab AT Plus 2 (Hamilton Co., Reno, Nev.) serially diluted 50 ul of the stock solution into an appropriate broth medium. Staphylococcal isolates were tested using cation adjusted Mueller Hinton broth. For S. pneumonaie testing, the Mueller Hinton broth was supplemented with 5% lysed horse blood and H. influenzae was tested with Haemophilus Test Medium. After the compounds were diluted, a 50 ul aliquot of the test isolate (˜1×10^6 cfu/ml) prepared in normal saline was added to each well of the microtitre plate. The final test concentrations ranged from 0.016-16 ug/mL. Inoculated plates were incubated at 35 °C in ambient air for 18 to 24 hours. The minimum inhibitory concentration (MIC) was determined as the lowest concentration of compound that inhibited visible growth.
# [2] = test system: S. aureus MRSA (methicillin resistant Staphylococcus aureus); test: MIC by broth microdilution, MRSA; format: cell-based; conditions: S. aureus MRSA (61 isolates); not all isolates tested against fusidic acid
# Description: as §1
# [3] = test system: S. aureus Fusidic acid^r (fusidic acid resistant); test: MIC by broth microdilution, fusidic acid resistant S. aureus; format: cell-based, Staphylococcus aureus; conditions: S. aureus Fusidic acid^r (6 isolates)
# Description: as §1
# [4] = test system: S. aureus Macrolide^r (macrolide resistant); test: MIC by broth microdilution, macrolide resistant S. aureus; format: cell-based, Staphylococcus aureus; conditions: S. aureus Macrolide^r (69 isolates); not all isolates tested against fusidic acid
# Description: as §1
# [5] = test system: H. influenzae BLNAR (beta lactamase negative ampicillin resistant); test: MIC by broth microdilution, H. influenzae BLNAR; format: cell-based; conditions: H. influenzae (5 isolates) BLNAR; Compound A n = 4
# Description: as §1
# [6] = test system: S. aureus Mupirocin^r (mupirocin resistant); test: MIC by broth microdilution, mupirocin resistant S. aureus; format: cell-based, Staphylococcus aureus; conditions: S. aureus Mupirocin^r (32 isolates); not all isolates tested against fusidic acid
# Description: as §1
# [7] = test system: S. aureus Linezolid resistant; test: MIC by broth microdilution, linezolid resistant S. aureus; format: cell-based, Staphylococcus aureus; conditions: S. aureus (3 isolates) Linezolid resistant
# Description: as §1
# [8] = test system: S. aureus VISA (vancomycin intermediate Staphylococcus aureus); test: MIC by broth microdilution, VISA; format: cell-based
# Description: as §1
# [9] = test system: H. influenzae ClarR (clarithromycin resistant); test: MIC by broth microdilution, H. influenzae ClarR; format: cell-based; conditions: H. influenzae (5 isolates) ClarR; Compound A n = 3
# Description: as §1
# [10] = S. aureus (4 isolates) VISA (vanc. MIC 4), second part of table
# [11] = S. aureus VISA (6 isolates), first part of table
Compound,MIC Range [1],MIC Range [2],MIC Range [3],MIC Range [4],MIC Range [5],MIC Range [6],MIC Range [7],"MIC Range [8, 10]","MIC Range [8, 11]",MIC Range [9]
CC(=O)O[C@H]1C[C@@]2(C)[C@@H](C[C@@H](O)[C@H]3[C@@]4(C)CC[C@@H](O)[C@@H](C)[C@@H]4CC[C@@]32C)/C1=C(\CCC=C(C)C)C(=O)O [Fusidic acid],0.12 to 0.5 µg/mL,0.12 to 1 µg/mL,>16 µg/mL,0.12 to 1 µg/mL,–,–,–,–,–,–
"C=C[C@]1(C)C[C@@H](OC(=O)CSC2CC3CCC(C2)N3C)[C@]2(C)C(C)CC[C@]3(CCC(=O)[C@H]32)[C@@H](C)[C@@H]1O (stereo partly drawn) [Compound A, mutilin 14-(exo-8-methyl-8azabicyclo[3.2.1]oct-3-ylsulfanyl)-acetate]",<0.016 to 0.12 µg/mL,<0.016 to 0.5 µg/mL,<0.016 to 0.03 µg/mL,0.03 to 0.5 µg/mL,2 to 4 µg/mL,<0.016 to 0.5 µg/mL,1 to 2 µg/mL,0.06 to 1 µg/mL,<0.06 to 1 µg/mL,0.12 to 0.25 µg/mL
C[C@H]1COc2c(N3CCN(C)CC3)c(F)cc3c(=O)c(C(=O)O)cn1c23 [Levofloxacin],–,–,–,–,<0.016 µg/mL,–,16 µg/mL,8 to 64 µg/mL,–,<0.016 µg/mL
C/C(=C\C(=O)OCCCCCCCCC(=O)O)C[C@@H]1OC[C@H](C[C@@H]2O[C@H]2[C@@H](C)[C@H](C)O)[C@@H](O)[C@H]1O [Mupirocin],–,–,–,–,–,–,–,–,<1 µg/mL,–
CC1(C)S[C@@H]2[C@H](NC(=O)[C@H](N)c3ccc(O)cc3)C(=O)N2[C@H]1C(=O)O [Amoxicillin],–,–,–,–,4 to 16 µg/mL,–,>32 µg/mL,8 to 32 µg/mL,–,–
CC[C@H]1OC(=O)[C@H](C)C(=O)[C@H](C)[C@@H](O[C@@H]2O[C@H](C)C[C@H](N(C)C)[C@H]2O)[C@](C)(OC)C[C@@H](C)C(=O)[C@H](C)[C@H]2N(CCCCn3cnc(-c4cccnc4)c3)C(=O)O[C@]12C [Telithromycin],–,–,–,–,1 µg/mL,–,0.03 to 0.06 µg/mL,–,–,–
CC[C@H]1OC(=O)[C@H](C)[C@@H](O[C@H]2C[C@@](C)(OC)[C@@H](O)[C@H](C)O2)[C@H](C)[C@@H](O[C@@H]2O[C@H](C)C[C@H](N(C)C)[C@H]2O)[C@](C)(O)C[C@@H](C)CN(C)[C@H](C)[C@@H](O)[C@]1(C)O [Azithromycin],–,–,–,–,1 to 2 µg/mL,–,0.5 µg/mL,–,–,–
CO/N=C(\C(=O)N[C@@H]1C(=O)N2C(C(=O)O)=C(COC(N)=O)CS[C@H]12)c1ccco1 [Cefuroxime],–,–,–,–,8 to 16 µg/mL,–,>16 µg/mL,>16 µg/mL,–,0.5 to 1 µg/mL

# Reference: patent US20080171766A1, “Novel Method” (SMITHKLINE BEECHAM CORPORATION, priority 2005, published 2008)
